Patent US20260048046A1, “METHOD FOR IMPROVING GROWTH PERFORMANCE IN FEEDLOT CATTLE” (Elanco US Inc., priority 2022, published 2026)

System: beef feedlot cattle
Test: 56-d study: abnormal health observations and removals
Format: in vivo
Procedure: This example describes a randomized complete block study that evaluated LUB dose (0, 1.5, 3.5, and 5.5 mg kg^−1 dry matter) during the last 56 d of the feeding period on live weight, carcass weight, and associated ratios in beef feedlot cattle. Carcass characteristics, mobility, and health were also evaluated. All cattle received monensin and tylosin throughout the study.
A randomized complete block design was used to evaluate the effects of LUB on calculated growth performance of 2,880 British and Continental European crossbred steers typical for U.S. feedlots. Bos indicus breeding was limited to less than ⅛. The study evaluated four
LUB doses: 0 (control, CON), 1.5, 3.5, and 5.5 mg·kg^−1 DM. There were 12 blocks, each block containing four replicate pens that started LUB feeding on the same date. Steers were randomized within each block of four pens with 60 steers per pen, resulting in a total of 720 steers enrolled in each treatment. LUB feeding started on Jun. 24, 2018, Jul. 1, 2018, and Jul. 15, 2018, four blocks on each date.
During the approximately 10 to 15 d acclimation phase and the entire treatment phase until cattle were loaded for slaughter, all animals were observed by trained caretakers at least once daily, but health issues were only noted by exception. All abnormalities were recorded even if considered common for feedlot cattle. Abnormal health observations were observations that the observer considered as 1) typical for beef cattle at that age, or 2) not causing undue pain or distress to the animal, and/or, 3) not impeding the animal's growth at the time the observation was made. Animals with abnormal health observations were allowed to remain in the study. Animals were allowed to receive concomitant therapies (e.g., antibiotic treatment for respiratory disease and treatment for bloat). Health observations requiring an animal to be classified as “removed” were abnormalities that the observer considered as 1) resulting in pain or distress to the animal, or 2) likely to result in further deterioration of the animal's health, and/or 3) impairing the animal's ability to access food or water at the time of the observation. Animals removed from the study during the treatment or withdrawal phase were penned separately in the research feedlot and tracked through slaughter to assure accountability of all cattle on study per food use authorization or were euthanized and necropsied. Decisions to remove an animal from treatment phase were made by the Investigator or Manager. Animals that were found dead at the time of the observation were removed from the pen as soon as practical and necropsied (if possible).
The label claim variable of cumulative NH3 gas emissions over the treatment period normalized by final BW (with d −59 BW as a covariate) for the period and HCW (g of gas kg^−1 of BW or g of gas kg^−1 HCW) was determined by utilizing NH3 gas emissions equations developed from the LUB clinical effectiveness study (FDA-FOI, 2018) and validated using animals of similar BW as described by Brown et al. (2019). The pen was the experimental unit for each outcome. Differences were deemed significant using a two-sided test at Ptrt≤0.05, however, a less stringent significance threshold of Ptrt≤0.10 was used for abnormal health observations. Fixed effect of treatment and random effects of time replicate and block within time replicate were included in the model. Discrete variables were analyzed using a generalized linear mixed model, Proc GLIMMIX SAS version 9.4 unless there were convergence problems due to sparseness of data. A binomial distribution was assumed and a logit link used in the analysis. Contrasts were constructed between the CON group and each non-CON dosage group, and differences were deemed significant at Pdose≤0.05. […]

[1] = Lubabegron 1.5 mg·kg^−1 DM, 56 d, 720 hd per treatment
[2] = Lubabegron 3.5 mg·kg^−1 DM, 56 d, 720 hd per treatment
[3] = Lubabegron 5.5 mg·kg^−1 DM, 56 d, 720 hd per treatment

## CC(C)(Cc1ccc(Oc2ncccc2C#N)cc1)NC[C@H](O)COc1ccccc1-c1cccs1 [LUB, 2-{4-[2-({(2S)-2-Hydroxy-3-[2-(2-thienyl)phenoxy]propyl}amino)-2-methylpropyl]phenoxy}nicotinonitrile]
CON, 1.5, 3.5, 5.5 mg·kg^−1, 56 d, Ptrt>0.10
  Abnormal health observations and animal removals, between-treatment differences: No significant (Ptrt>0.10) between-treatment differences
[1]
  Bloat (gastrointestinal), rate: 0.1%
  Bloat (gastrointestinal), total number: 1
  Dead (animals found dead), rate: 0.3%
  Dead (animals found dead), total number: 2
  Lameness (musculoskeletal), rate: 1.3%
  Lameness (musculoskeletal), total number: 9
  Removals (found dead and removed during treatment phase), rate: 2.5%
  Removals (found dead and removed during treatment phase), total number: 18
[2]
  Bloat (gastrointestinal), rate: 0.6%
  Bloat (gastrointestinal), total number: 4
  Dead (animals found dead), rate: 0.7%
  Dead (animals found dead), total number: 5
  Lameness (musculoskeletal), rate: 0.4%
  Lameness (musculoskeletal), total number: 3
  Removals (found dead and removed during treatment phase), rate: 1.5%
  Removals (found dead and removed during treatment phase), total number: 11
[3]
  Bloat (gastrointestinal), rate: 0.3%
  Bloat (gastrointestinal), total number: 2
  Lameness (musculoskeletal), rate: 1.0%
  Lameness (musculoskeletal), total number: 7
  Pneumonia (respiratory), rate: 0.3%
  Pneumonia (respiratory), total number: 2
  Removals (found dead and removed during treatment phase), rate: 1.8%
  Removals (found dead and removed during treatment phase), total number: 13
